Reference: US10376476B2, “Panicein compounds, compositions and uses thereof” (CENTRE NATIONAL DE LA RECHERCHE SCIENTIFIQUE, priority 2014, dated 2019)

Tests used:
Assay type in all cases: cell-based
[1] = biological target: T1, human Patched (hPtc) expressed in yeasts (Homo sapiens, UniProt Q13635); experiment: Resistance of hPtc-expressing yeasts to other chemotherapeutic agents (yeast growth, absorbance 600 nm); conditions: 10 μM paniceins; for inhibition of the resistance of yeasts to vemurafenib: 10 μM vemurafenib; for inhibition of the resistance of yeasts to cisplatine: 50 μM cisplatine; for inhibition of the resistance of yeasts to dacarbazine: 2 mM dacarbazine
T1 construct: MAP; expressed in transfected cells; host or cells: Saccharomyces cerevisiae K699
T1 sequence (Q13635 1-1447): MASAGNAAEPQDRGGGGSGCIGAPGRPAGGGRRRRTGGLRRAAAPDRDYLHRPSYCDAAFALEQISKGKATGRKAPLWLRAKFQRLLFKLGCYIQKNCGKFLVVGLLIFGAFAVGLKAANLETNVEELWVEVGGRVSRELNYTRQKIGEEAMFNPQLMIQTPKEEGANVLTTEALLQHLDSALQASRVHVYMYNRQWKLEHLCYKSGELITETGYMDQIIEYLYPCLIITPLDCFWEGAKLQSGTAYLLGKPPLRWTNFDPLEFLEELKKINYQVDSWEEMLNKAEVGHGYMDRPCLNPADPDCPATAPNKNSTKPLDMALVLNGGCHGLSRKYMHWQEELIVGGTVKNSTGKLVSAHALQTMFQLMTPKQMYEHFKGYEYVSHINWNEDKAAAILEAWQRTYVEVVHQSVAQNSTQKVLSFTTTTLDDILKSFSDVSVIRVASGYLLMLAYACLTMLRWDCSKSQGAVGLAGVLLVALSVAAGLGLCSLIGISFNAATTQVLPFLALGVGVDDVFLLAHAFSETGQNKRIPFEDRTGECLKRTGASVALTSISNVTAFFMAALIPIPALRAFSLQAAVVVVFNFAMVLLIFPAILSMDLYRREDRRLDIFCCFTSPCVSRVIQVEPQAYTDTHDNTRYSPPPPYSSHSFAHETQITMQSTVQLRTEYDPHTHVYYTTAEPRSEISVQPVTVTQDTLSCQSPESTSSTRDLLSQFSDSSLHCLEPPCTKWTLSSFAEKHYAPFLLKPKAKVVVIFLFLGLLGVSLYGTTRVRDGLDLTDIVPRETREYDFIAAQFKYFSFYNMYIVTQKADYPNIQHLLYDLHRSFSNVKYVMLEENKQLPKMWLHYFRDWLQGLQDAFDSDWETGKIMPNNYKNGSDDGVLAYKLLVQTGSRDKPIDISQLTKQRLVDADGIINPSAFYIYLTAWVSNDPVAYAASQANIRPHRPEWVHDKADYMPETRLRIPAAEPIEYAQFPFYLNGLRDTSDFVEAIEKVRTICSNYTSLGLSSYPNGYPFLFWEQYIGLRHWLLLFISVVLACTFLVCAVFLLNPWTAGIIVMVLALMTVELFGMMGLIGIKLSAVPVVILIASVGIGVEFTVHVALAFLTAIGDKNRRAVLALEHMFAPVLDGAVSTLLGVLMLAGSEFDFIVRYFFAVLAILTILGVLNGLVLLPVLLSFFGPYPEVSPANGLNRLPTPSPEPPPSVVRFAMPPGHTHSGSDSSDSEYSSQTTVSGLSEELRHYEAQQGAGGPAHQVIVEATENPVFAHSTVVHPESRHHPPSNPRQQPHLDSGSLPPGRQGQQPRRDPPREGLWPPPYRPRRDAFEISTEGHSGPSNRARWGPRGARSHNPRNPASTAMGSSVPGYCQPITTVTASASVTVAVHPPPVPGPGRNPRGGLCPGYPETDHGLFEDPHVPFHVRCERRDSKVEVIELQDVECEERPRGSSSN
Procedure: Paniceins were added at a final concentration of 10 μM to the yeast growth medium containing 2 mM of dacarbazine (A), 50 μM of cisplatine (B), or 10 μM of vemurafenib (C). The growth of hPtc-expressing-yeasts was measured by absorbance at 600 nm.
The expression of human Patched in yeasts confers to these yeasts the ability to grow in presence of other chemotherapeutic agents currently used to treat melanoma such as dacarbazine or cisplatine.

MDA-MB-435 cells = experiment: Screening test 2: doxorubicin cytotoxicity, neutral red cell viability; conditions: 24 hours; for increase of cell mortality induced by dxr (dxr cytotoxicity enhancement): MDA-MB-435, paniceins 10 μM, dxr 2 μM
Procedure: (§1) Cells were grown in 96 well plates in complete DMEM medium to achieve 60% to 70% confluence. Medium was then removed and replaced with 100 μL/well of complete DMEM medium containing paniceins at 10 μM (or at increasing concentrations for EC50 measurement) or DMSO as control. After 2 hours, 100 μL of complete DMEM medium containing doxorubicin was added in half wells to obtain the final concentration of 2 μM for MDA-MB-435 and MeWo, and 1.5 μM for A375. The cell viability was measured after 24 hours. Effect of compounds P2, P3, P4 and P5 on cell viability, and dose-response for compound P5 are shown for MDA-MB-435 (A), MeWo (B) and A375 (C). D. Enhancement of dxr cytotoxicity by paniceins is represented. The means (+/−sem) of at least three independent experiments are reported.
(§2) Melanoma cells MDA-MB-435, Mewo and A375 were seeded on 96-well plates and grown 48 hours in complete DMEM medium to achieve 60% to 70% confluence. Medium was then removed and replaced with 100 μL/well of complete DMEM medium containing the compounds of interest at defined concentration or DMSO as control. After 2 hours, 100 µL of complete DMEM medium containing doxorubicin was added in half wells to obtain 2 μM doxorubicin. Plates were incubated at 37° C. in a 5% CO2/95% air water-saturated atmosphere. After 24 hours, microplates were incubated 3 hours at 37° C. with 100 μL/wells neutral red (NR) solution (50 μg/mL in DMEM). After a rapid wash with PBS at 4° C., microplates were gently tapped several times on absorbent paper. Cells were solubilized with 100 μL of a solution containing 1% acetic acid, 49% H2O, 50% ethanol by vortexing 3 minutes at 700 rpm and the absorbance at 600 nm was measured. EC50 were calculated using Regressi software.

A375 cells = experiment: as above; conditions: 24 hours; for increase of cell mortality induced by dxr (dxr cytotoxicity enhancement): A375, paniceins 10 μM, dxr 1.5 μM
Procedure: as §1, §2

MeWo cells = experiment: as above; conditions: dxr 2 μM, 24 hours; for increase of cell mortality induced by dxr (dxr cytotoxicity enhancement): paniceins 10 μM
Procedure: as §1, §2

| SMILES | inhibition of the resistance of yeasts to vemurafenib [1] | inhibition of the resistance of yeasts to cisplatine [1] | inhibition of the resistance of yeasts to dacarbazine [1] | increase of cell mortality induced by dxr (dxr cytotoxicity enhancement) (MDA-MB-435 cells) | increase of cell mortality induced by dxr (dxr cytotoxicity enhancement) (A375 cells) | increase of cell mortality induced by dxr (dxr cytotoxicity enhancement) (MeWo cells) | EC50 (MDA-MB-435 cells; Homo sapiens, MDA-MB-435, dxr 2 μM, read-out: concentration inducing 50% of dxr cytotoxicity enhancement (EC50)) [µM] | EC50 (A375 cells; Homo sapiens, A-375, A375, dxr 1.5 μM, read-out: concentration inducing 50% of dxr cytotoxicity enhancement (EC50)) [µM] | EC50 (MeWo cells; Homo sapiens, read-out: concentration inducing 50% of dxr cytotoxicity enhancement (EC50)) [µM] |
| --- | --- | --- | --- | --- | --- | --- | --- | --- | --- |
| C/C(=C\Cc1cc(O)ccc1O)CCc1c(C)c(O)c(O)c(C=O)c1C [P2, Panicein C] | inhibits the resistance | inhibits the resistance | inhibits the resistance | about 2 times | no effect | about 2 times | – | – | – |
| C/C(=C\Cc1cc(O)ccc1O)CCc1c(C)cc(O)c(C=O)c1C [P3, Panicein B3] | inhibits the resistance | inhibits the resistance | inhibits the resistance | about 2 times | no effect | about 2 times | – | – | – |
| Cc1cc(O)c(C=O)c(C)c1CCC1(C)C=Cc2cc(O)ccc2O1 (stereo not shown) [P4, Panicein B2] | – | – | – | about 2 times | no effect | about 2 times | – | – | – |
| COc1cc(C)c(CC/C(C)=C/Cc2cc(O)ccc2O)c(C)c1C [P5, Panicein A hydroquinone] | inhibits the resistance | inhibits the resistance | inhibits the resistance | – | about 2 times | – | 9.3 | 22.5 | 5 |
